Source: patent US8901168B2 (priority 2007, dated 2014)

Columns and labels:
IFN-γ = tested on: IFN-γ; design: species or system BALB/c mice; conditions: mouse, in vivo
[1] = mice; for total vitamin E accumulation in adipose tissues: compared to unsupplemented control mice; for δ-T3 concentration in adipose tissue: compared to the rest of the groups
splenocytes = tested on: splenocytes; design: species or system BALB/c mice; conditions: mouse, in vivo
[2] = 1 mg oral gavage daily for 56 days

SMILES | IFN-γ production following Con A stimulation compared to α-T treated mice (IFN-γ) | total vitamin E levels in adipose tissues, ranking of groups ([1]; 1 mg oral gavage daily for 56 days, between supplemented groups) | total vitamin E accumulation in adipose tissues [1, 2] | δ-T3 concentration in adipose tissue ([1]; 56 days) | splenocyte proliferation, comparison between vitamin E treated groups (splenocytes) | splenocyte proliferative response to Con A (splenocytes) | splenocyte proliferative response to TT (splenocytes) | α-T (tocopherol) concentration in adipose tissue ([1]; 56 days, compared to the rest of the animal groups) | γ-T3 concentration in adipose tissue ([1]; 56 days, compared to the rest of the animals)
CC(C)=CCC/C(C)=C/CC/C(C)=C/CC[C@]1(C)CCc2cc(O)cc(C)c2O1 [δ-T3, δ-tocotrienol] | significant (P<0.05) increase | highest | significant (P<0.05) levels of total vitamin E accumulation | highest in the δ-T3 fed animals and the levels were highly significant (P<0.01) | slightly increased | significantly (P<0.05) greater proliferative response | significantly (P<0.05) greater proliferative response |  | 
Cc1c(C)c2c(c(C)c1O)CC[C@@](C)(CCC[C@H](C)CCC[C@H](C)CCCC(C)C)O2 [α-T, α-tocopherol] |  |  | significant (P<0.05) levels of total vitamin E accumulation | did not have any detectable amounts |  | significantly (P<0.05) greater proliferative response | significantly (P<0.05) greater proliferative response | significantly (P<0.05) high concentrations of tocopherol | did not have any detectable amounts
